In publication PMC4920374 (Bioorganic & medicinal chemistry, 2016):
Read-outs that look alike come from different tables or passages of the source.

Assays:
[1] = system: KB-vin (vincristine-resistant KB subline); assay: Antiproliferative SRB assay, KB-vin; format: cell-based, human
[2] = system: KB (epidermoid carcinoma of the nasopharynx); assay: Antiproliferative SRB assay, KB; format: cell-based, human
Mer TK = conditions: cited from earlier work
DU145 (prostate cancer) = assay: Antiproliferative SRB assay, DU145; format: cell-based; conditions: Homo sapiens, DU-145, read-out: GI50 DU145
[3] = system: A549 (human lung carcinoma); assay: Antiproliferative SRB assay, A549; format: cell-based; conditions: A549, read-out: GI50 A549
[4] = paclitaxel reference, values in nM

N#Cc1ccc(Nc2nc(NC3CCCC3)c3ccccc3n2)cc1 [6a, 2-(4-Cyanophenyl)amino-4-(N-cyclopentyl)aminoquinazoline]
GI50 KB-vin ([1]; SRB): >31300 nM | GI50 KB ([2]; SRB): >31300 nM

Nc1ccc(Nc2nc(NCCCO)c3ccccc3n2)cc1 [7b]
GI50 KB-vin ([1]; SRB): 18700 nM | GI50 KB ([2]; SRB): 19700 nM

OCCCNc1nc(Nc2ccc(F)cc2)nc2ccccc12 [7c, 2-(4-Fluorophenyl)amino-4-(3-hydroxypropyl)aminoquinazoline]
GI50 KB-vin ([1]; SRB): 24200 nM | GI50 KB ([2]; SRB): 17100 nM

CC(C)n1cnc2/c(=N/c3cccc(Cl)c3)nc(NCCO)[nH]c21 [C-52]
Mer inhibitory potency (Mer TK; literature Mer inhibitors): weak

CC(=O)O[C@H]1C(=O)[C@@]2(C)[C@H]([C@H](OC(=O)c3ccccc3)[C@]3(O)C[C@H](OC(=O)[C@H](O)[C@@H](NC(=O)c4ccccc4)c4ccccc4)C(C)=C1C3(C)C)[C@]1(OC(C)=O)CO[C@@H]1C[C@@H]2O [Paclitaxel]
GI50 KB-vin [1, 4]: 948 nM | GI50 KB [2, 4]: 2.6 nM | GI50 (DU145 (prostate cancer)): 0.0026 µM | GI50 [3]: 0.0049 µM

CCCCNc1ncc2c(-c3ccc(F)cc3)nn(CC3CCC(N)CC3)c2n1 (stereo not shown) [UNC569]
Mer inhibitory potency (Mer TK): subnanomolar

CCCCNc1ncc(C(=O)NCc2ccc(-n3ccnc3)cc2)c(NC2CCC(O)CC2)n1 (stereo not shown) [UNC2881]
Mer inhibitory potency (Mer TK): subnanomolar
